# Molecular target: Human CYP17 (Homo sapiens (Human), UniProt P05093)
# Test: CYP17 Total SPA Assay
# Assay type: biochemical
# Details: microsomes from HEK2 cells stably transfected with CYP17; 3H-Pregnenolone 1 uM, NADPH 2 mM; read-out: Human CYP17 Inhibition SPA IC50
# Method: CYP17 Total SPA Assay The assays were performed in U-bottom 384-well optiplates. […] The reaction was initiated by the combination of the microsomes and substrates in wells containing compound. The reaction was incubated at room temperature for 45 minutes and terminated by adding 7.5 μl of 0.2N HCl to each well. […] The plate was sealed and incubated overnight with shaking at 4° C. The beads were allowed to settle in the plate for 1 hour and the plate read on a TOPCOUNT® (Perkin-Elmer) plate reader. […] The final concentration of reagents in the assays are NADPH, 2 mM; 3H-Pregnenolone, 1 uM; microsomes, 1.25 ug/ml; […] Dose response curves were generated to determine the concentration required inhibiting 50% of enzyme activity (IC50). Compounds were dissolved at 10 mM in dimethylsulfoxide (DMSO) and evaluated at eleven concentrations, each in duplicate. IC50 values were derived by non-linear regression analysis. Table 3 below lists the IC50 values for the following examples of this invention measured in the Total CYP17 SPA Assay hereinabove.
# Chain of Human CYP17 (P05093 whole entry): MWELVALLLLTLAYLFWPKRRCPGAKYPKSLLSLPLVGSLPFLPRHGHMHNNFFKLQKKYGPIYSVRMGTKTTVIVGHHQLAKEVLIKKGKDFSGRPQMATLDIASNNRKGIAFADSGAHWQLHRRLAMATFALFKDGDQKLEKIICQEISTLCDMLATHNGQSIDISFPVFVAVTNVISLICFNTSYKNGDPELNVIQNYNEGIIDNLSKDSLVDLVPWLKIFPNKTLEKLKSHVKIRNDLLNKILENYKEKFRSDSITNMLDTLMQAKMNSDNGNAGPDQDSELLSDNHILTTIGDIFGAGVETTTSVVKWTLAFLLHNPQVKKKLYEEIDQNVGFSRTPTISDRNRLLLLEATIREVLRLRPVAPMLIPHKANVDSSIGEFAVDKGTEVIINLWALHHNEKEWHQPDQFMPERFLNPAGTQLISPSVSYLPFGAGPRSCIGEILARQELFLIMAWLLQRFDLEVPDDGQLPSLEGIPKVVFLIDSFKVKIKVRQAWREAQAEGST
row,Structure (SMILES),IC50 [µM]
1,"Cc1ccncc1-c1cccc2c1ncn2-c1cccc(F)n1 [Example 14, 1-(6-fluoropyridin-2-yl)-4-(4-methylpyridin-3-yl)-1H-benzo[d]imidazole]",0.011
2,"Nc1ncncc1-c1cccc2c1ncn2-c1ccc(F)cc1F [Example 46, 5-(1-(2,4-Difluorophenyl)-1H-benzo[d]imidazol-4-yl)pyrimidin-4-amine]",0.797
3,"Cc1ccncc1-c1cccc2c1ncn2-c1ccncn1 [Example 29, 4-(4-methylpyridin-3-yl)-1-(pyrimidin-4-yl)-1H-benzo[d]imidazole]",0.656
4,"Cc1ccncc1-c1cccc2c1ncn2-c1ccncc1 [Example 30, 4-(4-methylpyridin-3-yl)-1-(pyridin-4-yl)-1H-benzo[d]imidazole]",0.405
5,"Nc1ncncc1-c1cccc2c1ncn2CC(F)(F)F [Example 44, 5-(1-(2,2,2-Trifluoroethyl)-1H-benzo[d]imidazol-4-yl)pyrimidin-4-amine]",0.674
6,"Cc1ccncc1-c1cccc2c1ncn2-c1ncc(F)cc1F [Example 15, 1-(3,5-difluoropyridin-2-yl)-4-(4-methylpyridin-3-yl)-1H-benzo[d]imidazole]",0.758

# More lines, now with the values ahead:
row,IC50 [µM],Structure (SMILES)
1,0.361,"FC(F)(F)Cn1cnc2c(-c3cnccc3Cl)cccc21 [Example 39, 4-(4-Chloropyridin-3-yl)-1-(2,2,2-trifluoroethyl)-1H-benzo[d]imidazole]"
2,0.04,"Cc1ccncc1-c1cccc2c1ncn2-c1cccc(C(F)(F)F)n1 [Example 9, 4-(4-methylpyridin-3-yl)-1-(6-(trifluoromethyl)pyridin-2-yl)-1H-benzo[d]imidazole]"
3,0.25,"Cc1ccncc1-c1cccc2c1ncn2-c1cccnn1 [Example 6, 4-(4-methylpyridin-3-yl)-1-(pyridazin-3-yl)-1H-benzo[d]imidazole]"
4,0.0058,"Cc1ccncc1-c1cccc2c1ncn2-c1ccccn1 [Example 2, 4-(4-methylpyridin-3-yl)-1-(pyridin-2-yl)-1H-benzo[d]imidazole]"
5,0.135,"CCOc1ncncc1-c1cccc2c1ncn2CC(F)(F)F [Example 45, 4-(4-Ethoxypyrimidin-5-yl)-1-(2,2,2-trifluoroethyl)-1H-benzo[d]imidazole]"
6,0.396,"Cc1ccncc1-c1cccc2c1ncn2C1CC1 [Example 37, 1-Cyclopropyl-4-(4-methylpyridin-3-yl)-1H-benzo[d]imidazole]"
7,0.012,"Cc1ccncc1-c1cccc2c1ncn2CC(F)(F)F [Example 31, 4-(4-Methylpyridin-3-yl)-1-(2,2,2-trifluoroethyl)-1H-benzo[d]imidazole]"
8,0.037,"Cc1ccncc1-c1cccc2c1ncn2-c1cnccn1 [Example 4, 4-(4-methylpyridin-3-yl)-1-(pyrazin-2-yl)-1H-benzo[d]imidazole]"
9,0.33,"Cc1ccncc1-c1cccc2c1ncn2CC#N [Example 35, 2-(4-(4-Methylpyridin-3-yl)-1H-benzo[d]imidazol-1-yl)acetonitrile]"

# Test system: testosterone levels
# Test: 1-Day Cyno PK/PD Study (plasma testosterone)
# Assay type: in vivo
# Details: cynomolgus monkeys, single oral dose 2 mg/kg in 80% PEG-400/water, 24 hour period
# Method: Example 31 was formulated in 80% PEG-400/water at a volume of 1 mL/kg of monkey and administered orally at 2 mg/kg. The formulation was then dosed orally at time=0 hours and blood samples were taken over a 24 hour period to monitor for drug exposure and testosterone levels. (♦) Example 31 (nM); (▴) testosterone (ng/dL).
# 1-Day Cyno PK/PD Study Protocol
# Animals: All procedures involving animals and their care were conducted in conformity with the guidelines that are in compliance with the Bristol-Myers Squibb Institutional Animal Care and Use Committee. Fully mature male cynomolgus monkeys (>4 yrs of age; 5-6 kg) were from an in-house colony. All the monkeys used had chronically implanted femoral vein access ports. For oral studies, all animals were fasted overnight prior to dosing and were fed 4 hr after dosing. […]
# Sampling: Blood samples were collected from the femoral port, at 15, 30, and 45 min, and 1, 2, 4, 6, 8, 12, 24, 30, and 48 hr after oral administration. […] The plasma fraction was immediately separated by centrifugation (14,000 rpm, 10 min, 4° C.), frozen on dry ice, and stored at −20° C. until the samples were analyzed.
# Analysis of Tested Compound: Plasma samples were thawed and treated with two volumes of acetonitrile containing internal standard. After centrifugation to remove precipitated proteins, an aliquot of supernatant was analyzed by LC/MS/MS. […]
row,Structure (SMILES),testosterone levels [ng/dL]
1,"Cc1ccncc1-c1cccc2c1ncn2CC(F)(F)F [Example 31, 4-(4-Methylpyridin-3-yl)-1-(2,2,2-trifluoroethyl)-1H-benzo[d]imidazole]",~15
